# Measured values as given in PubChem BioAssay (NCI).
#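 Five concentrations, 48 hours, 96-well plates. GI50 = concentration required for 50% inhibition of growth. Definition used: TGI = concentration required for complete inhibition of growth.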
# Key:
# Assay in all cases: NCI tumour cell line growth inhibition, 48 h
# ACHN renal = test system: ACHN renal
# SF-268 CNS = test system: SF-268 CNS
# HL-60(TB) leukemia = test system: HL-60(TB) leukemia
# 786-0 renal = test system: 786-0 renal
# SK-MEL-5 melanoma = test system: SK-MEL-5 melanoma
# LOX IMVI melanoma = test system: LOX IMVI melanoma
# HT29 colon = test system: HT29 colon
# HCC-2998 colon = test system: HCC-2998 colon
# RPMI-8226 leukemia = test system: RPMI-8226 leukemia
# MCF7 breast = test system: MCF7 breast
# HOP-92 NSCLC = test system: HOP-92 NSCLC
# UO-31 renal = test system: UO-31 renal
# U251 CNS = test system: U251 CNS
# DU-145 prostate = test system: DU-145 prostate
# TK-10 renal = test system: TK-10 renal
# PC-3 prostate = test system: PC-3 prostate
# MDA-MB-435 = test system: MDA-MB-435
# SNB-75 CNS = test system: SNB-75 CNS
# EKVX NSCLC = test system: EKVX NSCLC
# BT-549 breast = test system: BT-549 breast
# HCT-15 colon = test system: HCT-15 colon
# OVCAR-5 ovarian = test system: OVCAR-5 ovarian
# RXF 393 renal = test system: RXF 393 renal
# CAKI-1 renal = test system: CAKI-1 renal
# MDA-MB-231 breast = test system: MDA-MB-231 breast
# CCRF-CEM leukemia = test system: CCRF-CEM leukemia
# A549 NSCLC = test system: A549 NSCLC
# NCI-H23 lung = test system: NCI-H23 lung
# K-562 leukemia = test system: K-562 leukemia
# UACC-257 melanoma = test system: UACC-257 melanoma
# NCI-H460 lung = test system: NCI-H460 lung
# HOP-62 NSCLC = test system: HOP-62 NSCLC
# SK-OV-3 ovarian = test system: SK-OV-3 ovarian
# M14 melanoma = test system: M14 melanoma
# SN12C renal = test system: SN12C renal
# SW-620 colon = test system: SW-620 colon
# UACC-62 melanoma = test system: UACC-62 melanoma
# A498 renal = test system: A498 renal
# T-47D breast = test system: T-47D breast
# KM12 colon = test system: KM12 colon
# NCI/ADR-RES ovarian = test system: NCI/ADR-RES ovarian
# HCT-116 colon = test system: HCT-116 colon
# SK-MEL-28 melanoma = test system: SK-MEL-28 melanoma
# HS 578T breast = test system: HS 578T breast
# SR leukemia = test system: SR leukemia
# SF-295 CNS = test system: SF-295 CNS
# OVCAR-3 ovarian = test system: OVCAR-3 ovarian
# MOLT-4 leukemia = test system: MOLT-4 leukemia
# MALME-3M melanoma = test system: MALME-3M melanoma
# SF-539 CNS = test system: SF-539 CNS
# OVCAR-8 ovarian = test system: OVCAR-8 ovarian
structure (smiles),measurement,setting,value
COC[C@]12CC[C@@H](C)[C@H](C)[C@H]1C1=CC[C@@H]3[C@@]4(C)CCCNC(C)(C)[C@@H]4CC[C@@]3(C)[C@]1(C)CC2,GI50,ACHN renal,1.78 µM
same,TGI,ACHN renal,3.22 µM
same,GI50,SF-268 CNS,1.92 µM
same,TGI,SF-268 CNS,3.74 µM
same,GI50,HL-60(TB) leukemia,1.28 µM
same,TGI,HL-60(TB) leukemia,3.05 µM
same,GI50,786-0 renal,1.69 µM
same,TGI,786-0 renal,3.21 µM
same,GI50,SK-MEL-5 melanoma,1.71 µM
same,TGI,SK-MEL-5 melanoma,3.11 µM
same,GI50,LOX IMVI melanoma,1.13 µM
same,TGI,LOX IMVI melanoma,2.49 µM
same,GI50,HT29 colon,1.58 µM
same,TGI,HT29 colon,3.26 µM
same,GI50,HCC-2998 colon,1.76 µM
same,TGI,HCC-2998 colon,3.38 µM
same,GI50,RPMI-8226 leukemia,2.19 µM
same,TGI,RPMI-8226 leukemia,5.19 µM
same,GI50,MCF7 breast,1.54 µM
same,TGI,MCF7 breast,3.37 µM
same,GI50,HOP-92 NSCLC,1.54 µM
same,TGI,HOP-92 NSCLC,4.36 µM
same,GI50,UO-31 renal,1.57 µM
same,TGI,UO-31 renal,3.2 µM
same,GI50,U251 CNS,1.72 µM
same,TGI,U251 CNS,3.43 µM
same,GI50,DU-145 prostate,1.93 µM
same,TGI,DU-145 prostate,3.41 µM
same,GI50,TK-10 renal,1.87 µM
same,TGI,TK-10 renal,3.52 µM
same,GI50,PC-3 prostate,1.49 µM
same,TGI,PC-3 prostate,3.38 µM
same,GI50,MDA-MB-435,1.65 µM
same,TGI,MDA-MB-435,3.11 µM
same,GI50,SNB-75 CNS,1.77 µM
same,TGI,SNB-75 CNS,4.77 µM
same,GI50,EKVX NSCLC,1.7 µM
same,TGI,EKVX NSCLC,3.42 µM
same,GI50,BT-549 breast,1.8 µM
same,TGI,BT-549 breast,3.6 µM
same,GI50,HCT-15 colon,1.51 µM
same,TGI,HCT-15 colon,3.16 µM
same,GI50,OVCAR-5 ovarian,1.81 µM
same,TGI,OVCAR-5 ovarian,3.32 µM
same,GI50,RXF 393 renal,1.54 µM
same,TGI,RXF 393 renal,3.02 µM
same,GI50,CAKI-1 renal,1.75 µM
same,TGI,CAKI-1 renal,3.36 µM
same,GI50,MDA-MB-231 breast,1.81 µM
same,TGI,MDA-MB-231 breast,3.4 µM
same,GI50,CCRF-CEM leukemia,1.67 µM
same,TGI,CCRF-CEM leukemia,4.2 µM
same,GI50,A549 NSCLC,1.8 µM
same,TGI,A549 NSCLC,3.77 µM
same,GI50,NCI-H23 lung,1.8 µM
same,TGI,NCI-H23 lung,3.62 µM
same,GI50,K-562 leukemia,1.05 µM
same,TGI,K-562 leukemia,2.81 µM
same,GI50,UACC-257 melanoma,2.05 µM
same,TGI,UACC-257 melanoma,4.46 µM
same,GI50,NCI-H460 lung,1.72 µM
same,TGI,NCI-H460 lung,3.35 µM
same,GI50,HOP-62 NSCLC,1.73 µM
same,TGI,HOP-62 NSCLC,3.55 µM
same,GI50,SK-OV-3 ovarian,5.13 µM
same,TGI,SK-OV-3 ovarian,19.8 µM
same,GI50,M14 melanoma,1.77 µM
same,TGI,M14 melanoma,3.57 µM
same,GI50,SN12C renal,3.09 µM
same,TGI,SN12C renal,11.8 µM
same,GI50,SW-620 colon,1.8 µM
same,TGI,SW-620 colon,3.58 µM
same,GI50,UACC-62 melanoma,1.71 µM
same,TGI,UACC-62 melanoma,3.19 µM
same,GI50,A498 renal,1.51 µM
same,TGI,A498 renal,3.38 µM
same,GI50,T-47D breast,1.87 µM
same,TGI,T-47D breast,4.39 µM
same,GI50,KM12 colon,1.86 µM
same,TGI,KM12 colon,3.43 µM
same,GI50,NCI/ADR-RES ovarian,1.78 µM
same,TGI,NCI/ADR-RES ovarian,3.57 µM
same,GI50,HCT-116 colon,1.49 µM
same,TGI,HCT-116 colon,2.92 µM
same,GI50,SK-MEL-28 melanoma,1.81 µM
same,TGI,SK-MEL-28 melanoma,3.34 µM
same,GI50,HS 578T breast,2.04 µM
same,TGI,HS 578T breast,4.85 µM
same,GI50,SR leukemia,1.48 µM
same,TGI,SR leukemia,3.25 µM
same,GI50,SF-295 CNS,1.88 µM
same,TGI,SF-295 CNS,3.57 µM
same,GI50,OVCAR-3 ovarian,1.83 µM
same,TGI,OVCAR-3 ovarian,3.29 µM
same,GI50,MOLT-4 leukemia,1.3 µM
same,TGI,MOLT-4 leukemia,3.03 µM
same,GI50,MALME-3M melanoma,1.74 µM
same,TGI,MALME-3M melanoma,3.61 µM
same,GI50,SF-539 CNS,1.6 µM
same,TGI,SF-539 CNS,3.03 µM
same,GI50,OVCAR-8 ovarian,2.19 µM
same,TGI,OVCAR-8 ovarian,4.94 µM
